Assay results from a compilation of properties of binary mixtures (doi:10.1021/acs.jpcb.8b11892).

Experiment: xn = mol fraction of the nth substance listed
Details: 101 kPa

CC[n+]1ccn(C)c1.O=S(=O)([O-])C(F)(F)F + O
Details	electrical conductivity, 298.15 K [S/m]	electrical conductivity, 313.15 K [S/m]	viscosity, 293.15 K [mPa·s]	viscosity, 298.15 K [mPa·s]	viscosity, 303.15 K [mPa·s]	viscosity, 313.15 K [mPa·s]
x1 = 0.001	0.28	0.37	1.01	0.9	0.81	0.67
x1 = 0.002	0.66	0.93	1.03	0.92	0.83	0.69
x1 = 0.004	1	–	–	0.96	0.86	–
x1 = 0.005	–	1.8	1.11	–	0.88	0.72
x1 = 0.008	1.7	2.3	1.16	1.03	–	0.75
x1 = 0.012	–	3.1	1.26	–	0.99	0.82
x1 = 0.017	–	–	1.38	–	–	–
x1 = 0.029	3.6	–	–	1.47	1.31	–
x1 = 0.041	–	5.6	–	–	1.57	1.26
x1 = 0.064	–	6.4	2.48	–	1.92	1.52
x1 = 0.094	4.8	6.6	3.21	2.81	2.47	1.96
x1 = 0.137	–	–	4.24	–	–	–
x1 = 0.216	3.9	5.7	6.17	5.37	4.71	3.69
x1 = 0.391	2.8	4.1	10.9	9.43	–	6.41
x1 = 0.463	2.4	3.4	–	11.8	10.3	7.95
x1 = 0.512	2.1	3.1	15.5	13.4	11.7	9.02
x1 = 0.73	1.5	2.2	27.3	23.3	20	15
x1 = 1	0.91	1.4	52.4	43.8	36.7	26.6
